25 compounds from ChEMBL document CHEMBL1201862, “PubChem BioAssay data set” (2004) can be followed below.

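Five concentrations, 48 hours, 96-well plates. The concentration for 50% growth inhibition is given as GI50.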 Activity calls are given as the source filed them. No stated cut-off is given here; in the data, active = GI50 up to about 1.1 µM and inactive = higher.

Some test systems named below: KM-20L2; HOP-18; DLD-1; RXF 631; SNB-78; M19-MEL; DMS-273; DMS-114; XF498.
Experiment in all cases: NCI-60 cell line screen, 48 h

On to `CC(C)c1cccc(C(C)C)c1NC1=CC(=O)C(=O)c2ccccc21`, for which the GI50 with KM-20L2 was > 100 µM (inactive); in the experiment on HOP-18, > 100 µM (inactive); in the experiment with DLD-1 it was > 100 µM (inactive); in the experiment with RXF 631 it was > 100 µM (inactive); with SNB-78, > 100 µM (inactive); in the experiment on M19-MEL, 22.3 µM (inactive). Also, the GI50 in the experiment with DMS-273 was > 100 µM (inactive).

In the case of `CN1C(=O)CSC1=S` [3-METHYL-RHODANINE], the GI50 in the experiment with KM-20L2, in the experiment on HOP-18, in the experiment with DLD-1, in the experiment with SNB-78, in the experiment with DMS-114 and in the experiment on M19-MEL was > 100 µM (inactive) throughout. Also, in the experiment with DMS-273, the GI50 is > 100 µM (inactive).

`NC(=O)c1ccccc1NC(=O)C(=O)Cc1nc2ccccc2nc1O`: the GI50 was > 100 µM (inactive) with KM-20L2; > 100 µM (inactive) in the experiment with DLD-1; > 100 µM (inactive) with RXF 631; 94.6 µM (inactive) with DMS-114; > 100 µM (inactive) in the experiment on M19-MEL; > 100 µM (inactive) in the experiment with DMS-273.

As to `COc1cc2c(c(OC)c1OC)-c1ccc(SC)c(=O)cc1[C@@H](NC(=O)C(F)(F)F)CC2`, the GI50 is 0.0585 µM (active) in the experiment with XF498; < 0.01 µM (active) in the experiment on KM-20L2; 26.5 µM (inactive) with HOP-18; < 0.01 µM (active) in the experiment on DLD-1; < 0.01 µM (active) in the experiment with DMS-273.

For the compound `Clc1ccc(CNc2nc3ccccc3nc2-c2cccs2)c(Cl)c1`, the GI50 with XF498 was 26.7 µM (inactive); with KM-20L2 it was 49.3 µM (inactive); in the experiment on HOP-18 it was > 100 µM (inactive); in the experiment on RXF 631 it was 67.3 µM (inactive); with SNB-78, > 100 µM (inactive); in the experiment with M19-MEL it was 66.8 µM (inactive). Further, in the experiment with DMS-273, the GI50 is 86.7 µM (inactive).

Take `COc1cc([C@@H]2OCC3C(c4ccc5c(c4)OCO5)OCC32)cc(OC)c1OC` (some centres not stated): the GI50 was 52.6 µM (inactive) in the experiment with XF498; > 100 µM (inactive) in the experiment with KM-20L2; > 100 µM (inactive) with DLD-1; > 100 µM (inactive) in the experiment with SNB-78; 35.5 µM (inactive) in the experiment on DMS-114; > 100 µM (inactive) in the experiment on M19-MEL. For the same compound, the GI50 with DMS-273 is 76.4 µM (inactive).

Consider `O=C1c2ccc3c4ccccc4n(Cc4ccccc4)c3c2C(=O)N1c1ccccc1`, for which the GI50 with KM-20L2 is 20.9 µM (inactive); with HOP-18, 12.1 µM (inactive); with DLD-1, 17 µM (inactive); with RXF 631 it was 14.5 µM (inactive); with SNB-78, 27.7 µM (inactive); in the experiment with DMS-114, 17.9 µM (inactive). Also, the GI50 in the experiment on M19-MEL was 17.3 µM (inactive); with DMS-273, 12.4 µM (inactive).

As to `C/C(COc1ccccc1)=N\NC(N)=S`, the GI50 with XF498 is 53.5 µM (inactive); in the experiment on KM-20L2 it was > 100 µM (inactive); in the experiment on DLD-1, > 100 µM (inactive); in the experiment with SNB-78, > 100 µM (inactive); in the experiment on DMS-114, 62.7 µM (inactive); in the experiment with M19-MEL, > 100 µM (inactive). The GI50 with DMS-273 is > 100 µM (inactive).

Regarding `Cc1ccc(NC(=O)CCC(=O)C2CC(=O)CCC2=O)cc1C` (configuration not stated), the GI50 in the experiment on KM-20L2, in the experiment on HOP-18, in the experiment with DLD-1, in the experiment on RXF 631, in the experiment with SNB-78 and in the experiment on DMS-114 was > 100 µM (inactive) in each case. Further, the GI50 in the experiment with M19-MEL and with DMS-273 was > 100 µM (inactive) in each case.

Take `COc1cc([C@@H]2OC(=O)C3C2C(=O)O[C@H]3c2ccc(O)c(OC)c2)ccc1O` (some centres not stated): the GI50 in the experiment with KM-20L2, in the experiment with HOP-18, in the experiment with DLD-1, in the experiment with RXF 631, in the experiment on SNB-78 and with DMS-114 was > 100 µM (inactive) in each case. Also, the GI50 in the experiment on M19-MEL and in the experiment with DMS-273 was > 100 µM (inactive) in each case.

`COC(=O)[C@H]1C2CC[C@@H]3C45C[C@@H](c6ccoc6)O[C@@H]4O[C@@H](O2)C31CCC5C` (some centres not stated): the GI50 with XF498 was > 100 µM (inactive); in the experiment with KM-20L2, > 100 µM (inactive); in the experiment with HOP-18, > 100 µM (inactive); with DLD-1, > 100 µM (inactive); with SNB-78 it was 25.7 µM (inactive); in the experiment on DMS-273, > 100 µM (inactive).

For the compound `CCCCCCCCCCCCCCCCOP(=O)([O-])OCC[N+](C)(C)C` [MILTEFOSINE], the GI50 was 17.9 µM (inactive) with XF498; > 10 µM (inactive) in the experiment on KM-20L2; 39.4 µM (inactive) in the experiment on HOP-18; 18.9 µM (inactive) in the experiment on DLD-1; 47.6 µM (inactive) in the experiment on SNB-78; 32.6 µM (inactive) in the experiment on DMS-114. Besides, the GI50 in the experiment with M19-MEL was 15.6 µM (inactive); in the experiment on DMS-273 it was 6.92 µM (inactive).

Consider `CC(C)C(NCc1c2ccccc2[n+]([O-])c2ccccc12)C(=O)O` (configuration not stated), for which the GI50 with KM-20L2 is 43.8 µM (inactive); in the experiment with HOP-18, 14.5 µM (inactive); in the experiment on DLD-1 it was 36.4 µM (inactive); in the experiment on SNB-78 it was 68.2 µM (inactive); with DMS-114, 29.6 µM (inactive); in the experiment with DMS-273, 38.9 µM (inactive).

On to `COc1ccc2nc3ccccc3c(NCCCCN(C)CCCl)c2c1`, for which the GI50 with XF498 is 0.0369 µM (active); in the experiment with KM-20L2, 0.0277 µM (active); in the experiment on DLD-1 it was 0.0471 µM (active); in the experiment on RXF 631, < 0.0185 µM (active); with SNB-78, 0.0596 µM (active); in the experiment on DMS-273, 0.0218 µM (active).

Consider `CCOC(=O)CC(NCc1ccc(/N=C/c2nc3ccc(C(F)(F)F)cc3nc2-c2ccccc2)cc1)C(=O)OCC` (configuration not stated), for which the GI50 in the experiment on XF498 was 14.2 µM (inactive); with KM-20L2 it was > 54.7 µM (inactive); in the experiment on HOP-18 it was 24.7 µM (inactive); in the experiment on DLD-1 it was > 100 µM (inactive); with SNB-78 it was > 72.1 µM (inactive); in the experiment with DMS-114, > 68.5 µM (inactive). Also, the GI50 with M19-MEL is > 100 µM (inactive); with DMS-273, > 64.1 µM (inactive).

With `O=C(Nc1ccc(C(F)(F)F)cc1[N+](=O)[O-])C(=O)C1NC(=S)NC1=O` (configuration not stated), the GI50 in the experiment with KM-20L2 was > 100 µM (inactive); in the experiment with HOP-18, > 100 µM (inactive); in the experiment with DLD-1 it was > 100 µM (inactive); in the experiment on RXF 631, 82.2 µM (inactive); in the experiment on SNB-78 it was > 100 µM (inactive); in the experiment with DMS-114, > 100 µM (inactive). The GI50 with M19-MEL and in the experiment on DMS-273 was > 100 µM (inactive) throughout.

Take `Cn1cc2ccccc2c1-c1nc(F)nc(Oc2ccc3c(c2)CC[C@@H]2C3CC[C@@]3(C)C2C[C@H](O)[C@@H]3O)n1` (some centres not stated): the GI50 in the experiment on XF498 is 22.4 µM (inactive); with KM-20L2, 15.8 µM (inactive); in the experiment with HOP-18, 22.3 µM (inactive); in the experiment on DLD-1, 10.3 µM (inactive); with SNB-78 it was 19.6 µM (inactive); in the experiment on DMS-114 it was 12.3 µM (inactive). Further, the GI50 in the experiment with M19-MEL was 16.9 µM (inactive); in the experiment with DMS-273, 10.3 µM (inactive).

With `C[C@H]1CCC/C=C/[C@@H]2C[C@H](O)C[C@H]2[C@H](O)/C=C/C(=O)O1` [BREFELDIN A], the GI50 is 0.00649 µM (active) in the experiment on XF498; 0.0041 µM (active) in the experiment with KM-20L2; 2.81 µM (inactive) in the experiment with HOP-18; 0.0134 µM (active) in the experiment on DLD-1; 0.101 µM (active) in the experiment with RXF 631; 0.00675 µM (active) in the experiment with SNB-78. The GI50 in the experiment on DMS-273 was 0.0266 µM (active).

For `COC(=O)C(=O)C(C(=O)C(=O)Nc1cccc(C(C)=O)c1)c1nc2ccc([N+](=O)[O-])cc2nc1O` (configuration not stated), the GI50 in the experiment with XF498, in the experiment with KM-20L2, with HOP-18, in the experiment with DLD-1, in the experiment with RXF 631 and in the experiment with SNB-78 was > 100 µM (inactive) throughout. The GI50 in the experiment with DMS-114 and in the experiment with DMS-273 was > 100 µM (inactive) each time.

For `CN/N=C(/CC(=O)c1sc(NNC(C)=O)nc1C)C(=O)Nc1ccc(OC)cc1OC`, the GI50 with XF498, with KM-20L2, in the experiment with DLD-1, in the experiment on SNB-78, in the experiment on DMS-114 and in the experiment on M19-MEL was > 100 µM (inactive) throughout. Also, in the experiment with DMS-273, the GI50 is > 100 µM (inactive).

Regarding `COc1ccccc1OCc1nnc(SCC(=O)O)n1-c1ccccc1`, the GI50 in the experiment on XF498, in the experiment with KM-20L2, in the experiment on DLD-1, in the experiment on SNB-78, in the experiment with DMS-114 and in the experiment on DMS-273 was > 100 µM (inactive) each time.

Consider `CCCCCN(CCCCC)C(=O)[C@H](CCC(=O)OCc1ccccc1)NC(=O)c1cc2ccccc2[nH]1`, for which the GI50 in the experiment with KM-20L2, in the experiment with HOP-18, in the experiment with DLD-1, in the experiment on RXF 631, with SNB-78 and in the experiment with DMS-114 was > 100 µM (inactive) each time. For the same compound, the GI50 in the experiment on DMS-273 was > 100 µM (inactive).

As to `COC(=O)/C=C(C)/C=C/c1cc(C(C)=O)c(C)o1`, the GI50 was > 100 µM (inactive) in the experiment with XF498; > 100 µM (inactive) in the experiment on KM-20L2; 46.9 µM (inactive) in the experiment on HOP-18; 43.8 µM (inactive) in the experiment with DLD-1; > 100 µM (inactive) with SNB-78; 93.3 µM (inactive) in the experiment with DMS-114.

On to `CN(/N=C/c1ccnc2ccccc12)c1c([N+](=O)[O-])cc([N+](=O)[O-])cc1[N+](=O)[O-]`, for which the GI50 is 70.1 µM (inactive) in the experiment on XF498; > 100 µM (inactive) in the experiment on KM-20L2; > 100 µM (inactive) with HOP-18; 37.4 µM (inactive) with DLD-1; 67.3 µM (inactive) in the experiment on SNB-78; 37.9 µM (inactive) in the experiment on DMS-114. Also, the GI50 in the experiment on M19-MEL and in the experiment with DMS-273 was > 100 µM (inactive) in each case.

On to `O=C(NCc1ccc2ccc3cccnc3c2n1)c1ccc[n+](Cc2ccccc2)c1`, for which the GI50 in the experiment with XF498 is > 100 µM (inactive); in the experiment on KM-20L2 it was > 100 µM (inactive); in the experiment on HOP-18, > 100 µM (inactive); in the experiment with DLD-1, > 100 µM (inactive); with RXF 631, > 100 µM (inactive); in the experiment on DMS-114, 36.8 µM (inactive). In addition, the GI50 in the experiment with M19-MEL was 60.8 µM (inactive); in the experiment on DMS-273 it was > 100 µM (inactive).
